Measured values published in patent publication US12371454B2, “Cyclic peptide compound having Kras inhibitory action” (priority 2019, dated 2025).
Starred links: 1 amine or outer side, 2 acyl side, 3 side chain; linkers in the order of their positions; H or OH if unused. Positions of bridges follow the written chain, without caps; N, C: chain ends. Non-standard residues stand in square brackets, D forms with d. Residues, ends and D or L forms follow the SMILES beside them. *: point of attachment. hPhe(3,5-F2-4-CF3) = N[C@@H](CCc1cc(F)c(C(F)(F)F)c(F)c1)C(=O)O; hPhe(3-Cl-4-CF3) = N[C@@H](CCc1ccc(C(F)(F)F)c(Cl)c1)C(=O)O; NMePhe(4-CN) = CN[C@@H](Cc1ccc(C#N)cc1)C(=O)O; 3Oxa8azabicyclo(3.2.1)octane = C1CC2COCC1N2*; NMeAbu(4,4,4-F3) = CN[C@@H](CC(F)(F)F)C(=O)O; NMePhe(4-Cl) = CN[C@@H](Cc1ccc(Cl)cc1)C(=O)O; NMePhe(4-Me) = CN[C@@H](Cc1ccc(C)cc1)C(=O)O; NMePhe(2-Cl) = CN[C@@H](Cc1ccccc1Cl)C(=O)O; hPhe(4-Cl) = N[C@@H](CCc1ccc(Cl)cc1)C(=O)O; NMedβ3hAla = C[C@H](CC(=O)[*:2])N(C)[*:1]; NMeAla(cPent) = CN[C@@H](CC1CCCC1)C(=O)O; NMeNva(5,5-F2) = CN[C@@H](CCC(F)F)C(=O)O; NMeGly(cPent) = CN[C@H](C(=O)O)C1CCCC1; Phe(3-I) = N[C@@H](Cc1cccc(I)c1)C(=O)O; Ala(cPent) = N[C@@H](CC1CCCC1)C(=O)O; NMeGly(cBu) = CN[C@H](C(=O)O)C1CCC1; NMeCha = CN[C@@H](CC1CCCCC1)C(=O)O; NMeChg = CN[C@H](C(=O)O)C1CCCCC1; NMeI = CC[C@H](C)[C@H](NC)C(=O)O; N(CH2CH2)2CF2 = FC1(F)CCN(*)CC1; NMeD = CN[C@@H](CC(=O)O)C(=O)O; NMeL = CN[C@@H](CC(C)C)C(=O)O; Oxazolidin(3-yl) = C1CN(*)CO1; NMeV = CN[C@H](C(=O)O)C(C)C; d(β3hA) = C[C@@H](N)CC(=O)O; NPhGly = O=C(O)CNc1ccccc1; NMeA = CN[C@@H](C)C(=O)O; NMeAib = CNC(C)(C)C(=O)O; Nle = CCCC[C@H](N)C(=O)O; Piperidide = C1CCN(*)CC1; Pyrrolidide = C1CCN(*)C1; Ac5c = NC1(C(=O)O)CCCC1; Aze = O=C(O)[C@@H]1CCN1; Sar = CNCC(=O)O

Assays:
[1] = biological target: T1, Kras and SOS1 (biotin-tagged human Kras loaded with GDP, His-tagged human SOS1) (Homo sapiens, UniProt P01116, G12D); experiment: Protein-protein interaction inhibition between Kras and SOS1 (KrasGl2D-SOS PPI) using AlphaScreen; type: binding; conditions: AlphaScreen; biotin-tagged human Kras loaded with GDP, His-tagged human SOS1; read-out: KRAS G12D-SOS PPI IC50
T1 construct: made in house; host or cells: E. coli (stated for Kras only)
Summary of the method: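 Energy transfer from nickel-chelate donor beads bound to His-SOS1 to streptavidin acceptor beads bound to biotin-Kras, expressed in E. coli and loaded with GDP after purification, was monitored. Donors were excited at 680 nm; singlet oxygen reaching acceptors gave emission read at 520-620 nm.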

[2] = system: Human pancreatic cancer cell line AsPC-1; experiment: Measurement of AsPC-1 cell growth inhibition (AsPC-1 CGI); type: cell-based; conditions: 96 h
Summary of the method: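 AsPC-1 cells in 15% FBS RPMI-1640 were exposed to test compound for 96 hours at 37° C, with CellTiter-Glo as endpoint.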

T1 sequence (P01116 1-188 isoform P01116-2 G12D): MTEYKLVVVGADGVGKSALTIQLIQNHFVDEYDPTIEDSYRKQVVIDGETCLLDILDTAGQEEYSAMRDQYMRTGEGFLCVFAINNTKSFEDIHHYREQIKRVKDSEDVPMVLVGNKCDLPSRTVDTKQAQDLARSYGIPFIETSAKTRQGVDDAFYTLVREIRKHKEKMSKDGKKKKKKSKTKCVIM

SMILES | IC50 [1] [µM] | IC50 [2] [µM]
CC[C@H](C)[C@@H]1NC(=O)[C@H](CC(C)C)N(C)C(=O)C[C@@H](C(=O)N(C)C)N(C)C(=O)[C@H](C2CCCC2)N(C)C(=O)C2(CCCC2)NC(=O)[C@H](CC(=O)N2CCC(F)(F)CC2)N(C)C(=O)[C@H](CCc2ccc(C(F)(F)F)c(Cl)c2)NC(=O)CN(C)C(=O)[C@H](CC2CCCCC2)N(C)C(=O)[C@@H]2CCN2C(=O)[C@H](C)N(C)C1=O [Compound 1955] ([NMeL]I[NMeA][Aze][NMeCha][Sar][hPhe(3-Cl-4-CF3)][NMeD](N(CH2CH2)2CF2)[Ac5c][NMeGly(cPent)][NMeD]-NMe2; lactam N-11) | 0.0015 | 0.1 to 0.5
CC[C@H](C)[C@@H]1NC(=O)[C@H](C)N(C)C(=O)C[C@@H](C(=O)N2CCCCC2)N(C)C(=O)[C@H](C2CCC2)N(C)C(=O)C(C)(C)N(C)C(=O)CN(c2ccccc2)C(=O)[C@H](CCc2ccc(C(F)(F)F)c(Cl)c2)NC(=O)CN(C)C(=O)[C@H](C2CCC2)N(C)C(=O)[C@@H]2CCN2C(=O)[C@H](C)N(C)C1=O [Compound 2144] ([NMeA]I[NMeA][Aze][NMeGly(cBu)][Sar][hPhe(3-Cl-4-CF3)][NPhGly][NMeAib][NMeGly(cBu)][NMeD]-Piperidide; lactam N-11) | 0.0069 | > 0.5
CC[C@H](C)[C@@H]1NC(=O)[C@H](CC(F)(F)F)N(C)C(=O)C[C@@H](C(=O)N2C3CCC2COC3)N(C)C(=O)[C@H](C2CCCCC2)N(C)C(=O)C2(CCCC2)NC(=O)[C@@H]2CCCN2C(=O)[C@H](CCc2ccc(C(F)(F)F)c(Cl)c2)NC(=O)CN(C)C(=O)[C@H](CC2CCCC2)N(C)C(=O)CN(C)C(=O)CN(C)C1=O [Compound 1057] ([NMeAbu(4,4,4-F3)]I[Sar][Sar][NMeAla(cPent)][Sar][hPhe(3-Cl-4-CF3)]P[Ac5c][NMeChg][NMeD]-{3Oxa8azabicyclo(3.2.1)octane}; lactam N-11) | 0.0012 | 0.1 to 0.5
CC[C@H](C)[C@@H]1NC(=O)[C@H](CC(C)C)N(C)C(=O)C[C@@H](C(=O)N2C3CCC2COC3)N(C)C(=O)[C@H](C(C)C)N(C)C(=O)C2(CCCC2)NC(=O)[C@@H]2CCCN2C(=O)[C@H](CCc2ccc(C(F)(F)F)c(Cl)c2)NC(=O)CN(C)C(=O)[C@H](CC2CCCCC2)N(C)C(=O)CN(C)C(=O)CN(C)C1=O [Compound 1954] ([NMeL]I[Sar][Sar][NMeCha][Sar][hPhe(3-Cl-4-CF3)]P[Ac5c][NMeV][NMeD]-{3Oxa8azabicyclo(3.2.1)octane}; lactam N-11) | 0.0023 | 0.1 to 0.5
CC[C@H](C)[C@@H]1NC(=O)[C@H](C)N(C)C(=O)C[C@@H](C)NC(=O)[C@H](C2CCCC2)N(C)C(=O)C2(CCCC2)NC(=O)[C@@H]2CCCN2C(=O)[C@H](CCc2ccc(C(F)(F)F)c(Cl)c2)NC(=O)CN(C)C(=O)[C@H](Cc2ccc(C)cc2)N(C)C(=O)[C@@H]2CCN2C(=O)CN(C)C1=O [Compound 1462] (cyclo([Ac5c][NMeGly(cPent)][d(β3hA)][NMeA]I[Sar][Aze][NMePhe(4-Me)][Sar][hPhe(3-Cl-4-CF3)]P)) | 0.00079 | 0.1 to 0.5
CC[C@H](C)[C@@H]1NC(=O)[C@H](CC(F)(F)F)N(C)C(=O)C[C@@H](C(=O)N2CCCC2)N(C)C(=O)[C@H](C2CCCCC2)N(C)C(=O)C2(CCCC2)NC(=O)[C@@H]2CCCN2C(=O)[C@H](CCc2cc(F)c(C(F)(F)F)c(F)c2)NC(=O)CN(C)C(=O)[C@H](Cc2ccc(C)cc2)N(C)C(=O)CN(C)C(=O)CN(C)C1=O [Compound 1278] ([NMeAbu(4,4,4-F3)]I[Sar][Sar][NMePhe(4-Me)][Sar][hPhe(3,5-F2-4-CF3)]P[Ac5c][NMeChg][NMeD]-Pyrrolidide; lactam N-11) | 0.00065 | 0.02 to 0.05
CC[C@H](C)[C@@H]1NC(=O)[C@H](CC(C)C)N(C)C(=O)C[C@@H](C(=O)N2CCCC2)N(C)C(=O)[C@H](C2CCCCC2)N(C)C(=O)C2(CCCC2)NC(=O)[C@@H]2CCCN2C(=O)[C@H](CCc2ccc(Cl)cc2)NC(=O)CN(C)C(=O)[C@H](CC2CCCCC2)N(C)C(=O)CN(C)C(=O)CN(C)C1=O [Compound 1968] ([NMeL]I[Sar][Sar][NMeCha][Sar][hPhe(4-Cl)]P[Ac5c][NMeChg][NMeD]-Pyrrolidide; lactam N-11) | 0.0012 | 0.05 to 0.1
CC[C@H](C)[C@@H]1NC(=O)[C@H](CC(C)C)N(C)C(=O)C[C@@H](C)N(C)C(=O)[C@H]([C@@H](C)CC)N(C)C(=O)C2(CCCC2)NC(=O)[C@@H]2CCCN2C(=O)[C@H](CCc2ccc(C(F)(F)F)c(Cl)c2)NC(=O)CN(C)C(=O)[C@H](CC2CCCCC2)N(C)C(=O)CN(C)C(=O)CN(C)C1=O [Compound 904] (cyclo([Ac5c][NMeI][NMedβ3hAla][NMeL]I[Sar][Sar][NMeCha][Sar][hPhe(3-Cl-4-CF3)]P)) | 0.0073 | 0.05 to 0.1
CC[C@H](C)[C@@H]1NC(=O)[C@H](CC(C)C)N(C)C(=O)C[C@@H](C)N(C)C(=O)[C@H](C2CCCC2)N(C)C(=O)C2(CCCC2)NC(=O)[C@@H]2CCCN2C(=O)[C@H](CCc2ccc(C(F)(F)F)c(Cl)c2)NC(=O)CN(C)C(=O)[C@H](Cc2ccc(C)cc2)N(C)C(=O)CN(C)C(=O)CN(C)C1=O [Compound 1694] (cyclo([Ac5c][NMeGly(cPent)][NMedβ3hAla][NMeL]I[Sar][Sar][NMePhe(4-Me)][Sar][hPhe(3-Cl-4-CF3)]P)) | 0.00055 | 0.02 to 0.05
CC[C@H](C)[C@@H]1NC(=O)[C@H](CC(C)C)N(C)C(=O)C[C@@H](C(=O)N2CCCCC2)N(C)C(=O)[C@H](C2CCCCC2)N(C)C(=O)C2(CCCC2)NC(=O)[C@@H]2CCCN2C(=O)[C@H](CCc2ccc(C(F)(F)F)c(Cl)c2)NC(=O)CN(C)C(=O)[C@H]([C@@H](C)CC)N(C)C(=O)CN(C)C(=O)CN(C)C1=O [Compound 1686] ([NMeL]I[Sar][Sar][NMeI][Sar][hPhe(3-Cl-4-CF3)]P[Ac5c][NMeChg][NMeD]-Piperidide; lactam N-11) | 0.0015 | 0.1 to 0.5
CC[C@H](C)[C@@H]1NC(=O)[C@H](CC(C)C)N(C)C(=O)C[C@@H](C(=O)N2CCOC2)N(C)C(=O)[C@H](C2CCCCC2)N(C)C(=O)C2(CCCC2)NC(=O)[C@@H]2CCCN2C(=O)[C@H](CCc2ccc(C(F)(F)F)c(Cl)c2)NC(=O)CN(C)C(=O)[C@H](CC2CCCCC2)N(C)C(=O)CN(C)C(=O)CN(C)C1=O [Compound 1180] ([NMeL]I[Sar][Sar][NMeCha][Sar][hPhe(3-Cl-4-CF3)]P[Ac5c][NMeChg][NMeD]-{Oxazolidin(3-yl)}; lactam N-11) | 0.0005 | 0.05 to 0.1
CC[C@H](C)[C@@H]1NC(=O)[C@H](CC(C)C)N(C)C(=O)C[C@@H](C)N(C)C(=O)[C@H](C(C)C)N(C)C(=O)C2(CCCC2)NC(=O)[C@@H]2CCCN2C(=O)[C@H](CCc2ccc(C(F)(F)F)c(Cl)c2)NC(=O)CN(C)C(=O)[C@H](Cc2ccc(C#N)cc2)N(C)C(=O)CN(C)C(=O)CN(C)C1=O [Compound 888] (cyclo([Ac5c][NMeV][NMedβ3hAla][NMeL]I[Sar][Sar][NMePhe(4-CN)][Sar][hPhe(3-Cl-4-CF3)]P)) | 0.0039 | 0.1 to 0.5
CCCC[C@@H]1NC(=O)[C@H](Cc2cccc(I)c2)NC(=O)CN(C)C(=O)[C@H](Cc2ccc(Cl)cc2)N(C)C(=O)CN(C)C(=O)CN(C)C(=O)[C@H]([C@@H](C)CC)NC(=O)[C@H](CC(C)C)N(C)C(=O)C[C@@H](C(=O)N2CCCCC2)N(C)C(=O)[C@H](CC(C)C)NC(=O)[C@H](Cc2ccccc2Cl)N(C)C1=O [Compound 168] ([NMeL]I[Sar][Sar][NMePhe(4-Cl)][Sar][Phe(3-I)][Nle][NMePhe(2-Cl)]L[NMeD]-Piperidide; lactam N-11) | 0.029 | 0.1 to 0.5
CC[C@H](C)[C@@H]1NC(=O)[C@H](CC(C)C)N(C)C(=O)C[C@@H](C(=O)N(C)C)N(C)C(=O)[C@H](C2CCCC2)N(C)C(=O)C2(CCCC2)NC(=O)[C@H](CCC(F)F)N(C)C(=O)[C@H](CCc2ccc(C(F)(F)F)c(Cl)c2)NC(=O)CN(C)C(=O)[C@H](CC2CCCCC2)N(C)C(=O)[C@@H]2CCN2C(=O)[C@H](C)N(C)C1=O [Compound 1907] ([NMeL]I[NMeA][Aze][NMeCha][Sar][hPhe(3-Cl-4-CF3)][NMeNva(5,5-F2)][Ac5c][NMeGly(cPent)][NMeD]-NMe2; lactam N-11) | 0.0013 | 0.02 to 0.05
CC[C@H](C)[C@@H]1NC(=O)[C@H](CC(C)C)N(C)C(=O)C[C@@H](C)NC(=O)[C@H](C2CCCC2)N(C)C(=O)C2(CCCC2)NC(=O)[C@@H]2CCCN2C(=O)[C@H](CCc2ccc(C(F)(F)F)c(Cl)c2)NC(=O)CN(C)C(=O)[C@H](Cc2ccc(C)cc2)N(C)C(=O)[C@@H]2CCN2C(=O)CN(C)C1=O [Compound 1500] (cyclo([Ac5c][NMeGly(cPent)][d(β3hA)][NMeL]I[Sar][Aze][NMePhe(4-Me)][Sar][hPhe(3-Cl-4-CF3)]P)) | 0.0039 | 0.1 to 0.5
CC(C)C[C@H]1C(=O)N[C@@H](CC2CCCC2)C(=O)N(C)CC(=O)N(C)CC(=O)N(C)[C@@H](CC2CCCCC2)C(=O)N(C)CC(=O)N[C@@H](CCc2ccc(C(F)(F)F)c(Cl)c2)C(=O)N2CCC[C@H]2C(=O)NC2(CCCC2)C(=O)N(C)[C@@H](C2CCCCC2)C(=O)N(C)[C@H](C(=O)N2CCCCC2)CC(=O)N1C [Compound 1838] ([NMeL][Ala(cPent)][Sar][Sar][NMeCha][Sar][hPhe(3-Cl-4-CF3)]P[Ac5c][NMeChg][NMeD]-Piperidide; lactam N-11) | 0.0026 | 0.1 to 0.5
